Test results reported in patent US8084492B2, “Benzofuran compound and pharmaceutical composition containing the same” (The New Industry Research Organization, priority 2004, dated 2011).

Target: T1, human BLT1 (Homo sapiens, UniProt Q15722)
T1 construct: expressed in transfected cells; host or cells: CHO cells
Assay: LTB4-induced intracellular calcium increase (Fluo-3) in CHO cells expressing human BLT1
Format: cell-based
Conditions: CHO cells harbouring BLT1; compound 10 μM; 100 nM LTB4; fluorescence AUC in 10 min
Description: (§1) CHO cells harbouring a gene encoding human BLT1 or human BLT2 and functionally expressing the receptor were seeded in a 96 well plate at 4×10^4 cells/well, and cultured at 37° C. for 60 min. The culture supernatant was removed and a loading buffer (100 μl) containing 4 μM Fluo-3 (manufactured by Dojindo), 0.04% pluoronic acid (manufactured by Sigma) and 1% serum was added. The cells were cultured at 37° C. for 30 min to introduce Fluo-3 into the cells. After culture, the cells were washed with a buffer, and a buffer containing the compound of Example 1 (10 μM (final concentration)) was added, and then 100 nM (final concentration) of leukotriene B4 (LTB4) was added. Changes in the intracellular calcium ion concentration were measured with Flexstation (manufactured by Molecular Devices Corporation) as an increase in the fluorescence intensity (area under a curve in a time-course graph of fluorescence intensity in 10 min measurement). As a positive control of BLT1 and BLT2 antagonists, ZK158252, a known LTB4 inhibitor, was used.

T1 sequence (Q15722 whole entry): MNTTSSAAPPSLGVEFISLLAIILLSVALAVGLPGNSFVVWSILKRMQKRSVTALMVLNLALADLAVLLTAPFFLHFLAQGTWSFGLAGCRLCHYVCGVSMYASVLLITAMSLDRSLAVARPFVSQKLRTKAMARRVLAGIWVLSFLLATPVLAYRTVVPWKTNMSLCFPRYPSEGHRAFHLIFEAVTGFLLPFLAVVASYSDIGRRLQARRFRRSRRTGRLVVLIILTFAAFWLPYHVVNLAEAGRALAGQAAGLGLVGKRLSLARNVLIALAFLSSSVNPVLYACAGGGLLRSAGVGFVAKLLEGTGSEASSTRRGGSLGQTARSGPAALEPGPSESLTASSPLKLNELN

SMILES | suppression of increase in the intracellular calcium ion concentration due to LTB4 stimulation
CCN(CC)C(=O)/C=C(\C)c1cc2cccc(OC(C)c3ccccc3)c2o1 (stereo not shown) [Example 1, (E)-3-[7-(1-phenylethoxy)-benzofuran-2-yl]-but-2-enoic acid-diethylamide] | weaker as compared to the effect on BLT2
O=C(O)CCC/C=C1\CCCCC1/C=C/C=C/C(O)C1(CC#Cc2ccccc2)CCC1 (stereo not shown) [ZK158252, reference compound] | significantly suppressed

Target: T2, human BLT2 (Homo sapiens, UniProt Q9NPC1)
T2 construct: expressed in transfected cells; host or cells: CHO cells
T2 sequence (Q9NPC1 1-358): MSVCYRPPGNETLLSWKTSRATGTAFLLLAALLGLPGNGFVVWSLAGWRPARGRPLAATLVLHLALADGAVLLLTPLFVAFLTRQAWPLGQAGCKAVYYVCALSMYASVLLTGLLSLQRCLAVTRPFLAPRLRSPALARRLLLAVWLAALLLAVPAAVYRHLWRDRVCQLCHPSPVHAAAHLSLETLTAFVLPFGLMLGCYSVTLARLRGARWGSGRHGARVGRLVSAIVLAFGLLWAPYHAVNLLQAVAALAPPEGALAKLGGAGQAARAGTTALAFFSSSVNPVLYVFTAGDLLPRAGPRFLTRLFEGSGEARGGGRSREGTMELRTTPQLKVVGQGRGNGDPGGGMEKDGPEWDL
Assay: LTB4-induced intracellular calcium increase (Fluo-3) in CHO cells expressing human BLT2
Format: cell-based
Conditions: CHO cells harbouring BLT2; compound 10 μM; 100 nM LTB4; fluorescence AUC in 10 min
Description: as §1

SMILES | suppression of increase in the intracellular calcium ion concentration due to LTB4 stimulation
CCN(CC)C(=O)/C=C(\C)c1cc2cccc(OC(C)c3ccccc3)c2o1 (stereo not shown) [Example 1, (E)-3-[7-(1-phenylethoxy)-benzofuran-2-yl]-but-2-enoic acid-diethylamide] | suppressed by the compound of Example 1 at an intensity equivalent to or greater than the suppression by ZK158252
O=C(O)CCC/C=C1\CCCCC1/C=C/C=C/C(O)C1(CC#Cc2ccccc2)CCC1 (stereo not shown) [ZK158252, reference compound] | significantly suppressed

System: not given
Assay: not given
Conditions: not given

SMILES | melting point
COc1ccc(CCNC(=O)/C=C/c2coc3ccccc23)cc1OC [Example 9] | 138.1 to 140.3 °C
COc1ccc(CCNC(=O)/C=C(/C)c2c(C)oc3ccc(Br)cc23)cc1OC [Example 15] | 150.1 to 153.5 °C
COc1ccc(CCNC(=O)C=C(C)c2c(C)oc3ccc([N+](=O)[O-])cc23)cc1OC [Example 21] | 116.9 to 124.4 °C
CCN(CC)C(=O)/C=C(\C)c1c(C)oc2ccc([N+](=O)[O-])cc12 [Example 20] | 130 to 134 °C
COc1ccc(CCNC(=O)/C=C(\C)c2c(C)oc3ccc(Cl)cc23)cc1OC [Example 3] | 73 to 76 °C
COc1ccc(CCNC(=O)/C=C(\C)c2c(C)oc3ccc(Br)cc23)cc1OC [Example 5] | 143.1 to 150 °C
COc1ccc(CCNC(=O)/C=C(\C)c2c(-c3ccccc3)oc3ccc(Cl)cc23)cc1OC [Example 11] | 169.1 to 171.9 °C

More lines, now with the values ahead:

melting point | SMILES
160.1 to 162.2 °C | COc1cccc(NC(=O)/C=C(/c2ccc(Cl)cc2)c2cc3cc(Br)ccc3o2)c1 [Example 16]
112.2 to 117 °C | COc1ccc(C(=CC(=O)NCCc2ccc(OC)c(OC)c2)c2cc3cc(Br)ccc3o2)cc1 [Example 17]
150 to 153.5 °C | O=C(/C=C(/c1ccc(Cl)cc1)c1cc2cc(Br)ccc2o1)N1CCOCC1 [Example 10]
150.9 to 151.5 °C | COc1ccc(CCNC(=O)/C=C(/C)c2c(C)oc3ccc(Cl)cc23)cc1OC [Example 2]
139 to 142 °C | COc1cccc(NC(=O)/C=C(\C)c2c(C)oc3ccc(Cl)cc23)c1 [Example 4]
132.1 to 134.6 °C | O=C(/C=C/c1coc2ccccc12)N1CCOCC1 [Example 14]
93.5 to 96 °C | CCN(CC)C(=O)/C=C(/c1ccc(OC)cc1)c1cc2cc(Br)ccc2o1 [Example 13]
106.7 to 109.8 °C | CCN(CC)C(=O)/C=C(/c1ccc(Cl)cc1)c1cc2cc(Br)ccc2o1 [Example 6]
